Laboratory results reported in ChEMBL document CHEMBL1201862, “PubChem BioAssay data set” (2004).
Where a name gives a salt, the structure may show the parent alone.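 In this assay, cells in 96-well plates receive the compound at five concentrations for 48 hours. Endpoints are linearly interpolated between the surrounding concentrations. Abbreviation: GI50, concentration required for 50% inhibition of growth.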 Calls of active or inactive are those of the source. Cut-off read from the data, not from the text of the source: active = GI50 up to about 1.1 µM and inactive = higher.

Experiments:
Assay in all cases: DTP human tumour cell line panel, 48 h
UO-31 = test system: UO-31
TK-10 = test system: TK-10
ACHN = test system: ACHN
RPMI-8226 = test system: RPMI-8226
NCI-H522 = test system: NCI-H522
OVCAR-5 = test system: OVCAR-5
SW-620 = test system: SW-620
SK-MEL-2 = test system: SK-MEL-2
HL-60 = test system: HL-60
OVCAR-8 = test system: OVCAR-8
HCT-116 = test system: HCT-116
HT-29 = test system: HT-29
OVCAR-4 = test system: OVCAR-4
M14 = test system: M14
U-251 = test system: U-251
SNB-75 = test system: SNB-75
PC-3 = test system: PC-3
Malme-3M = test system: Malme-3M
MOLT-4 = test system: MOLT-4
SF-539 = test system: SF-539

Compound | GI50 (UO-31) | GI50 (TK-10) | GI50 (ACHN) | GI50 (RPMI-8226) | GI50 (NCI-H522) | GI50 (OVCAR-5) | GI50 (SW-620) | GI50 (SK-MEL-2) | GI50 (HL-60) | GI50 (OVCAR-8) | GI50 (HCT-116) | GI50 (HT-29) | GI50 (OVCAR-4) | GI50 (M14) | GI50 (U-251) | GI50 (SNB-75) | GI50 (PC-3) | GI50 (Malme-3M) | GI50 (MOLT-4) | GI50 (SF-539)
Cc1cc(C)c2c(SCc3ccc(Cl)cc3Cl)nc(N)nc2n1 | 23.5 µM (inactive) | 17.6 µM (inactive) | 57.5 µM (inactive) | 60.7 µM (inactive) | 15.5 µM (inactive) | > 100 µM (inactive) | > 100 µM (inactive) | 50.1 µM (inactive) | > 100 µM (inactive) | 28.9 µM (inactive) | 27 µM (inactive) | > 100 µM (inactive) | > 100 µM (inactive) | 82.6 µM (inactive) | 36.5 µM (inactive) | 58.6 µM (inactive) | 35.6 µM (inactive) | 32 µM (inactive) |  | 
Cc1cc(C(=O)CCCCOc2ccc(C3=NCCO3)cc2)c(C)n1C | 39.9 µM (inactive) | 44.9 µM (inactive) | 35.4 µM (inactive) | 37.3 µM (inactive) | 50.7 µM (inactive) | 71.6 µM (inactive) | 33.2 µM (inactive) | 28.7 µM (inactive) | 0.0883 µM (active) | 33.2 µM (inactive) | 39.9 µM (inactive) | 39.1 µM (inactive) | 36.5 µM (inactive) | 37.8 µM (inactive) | 31.3 µM (inactive) | 21 µM (inactive) | 19.9 µM (inactive) | 35.3 µM (inactive) | 14.7 µM (inactive) | 
NS(=O)(=O)c1ccc(Nc2c3ccccc3nc3c(C(=O)NCCO)cccc23)cc1 | 0.181 µM (active) | 0.27 µM (active) | 0.252 µM (active) | 0.0676 µM (active) | 0.127 µM (active) | 0.183 µM (active) | 0.118 µM (active) | 0.186 µM (active) | 0.243 µM (active) | 0.173 µM (active) | 0.149 µM (active) | 0.16 µM (active) | 0.195 µM (active) | 0.182 µM (active) | 0.0728 µM (active) |  | 0.177 µM (active) | 0.13 µM (active) | 0.0241 µM (active) | 0.131 µM (active)
Cc1c(NC(=S)Nc2ccc([N+](=O)[O-])cc2)c(=O)n(-c2ccccc2)n1C | > 100 µM (inactive) | > 100 µM (inactive) | > 100 µM (inactive) | 16.6 µM (inactive) | > 100 µM (inactive) | > 100 µM (inactive) | > 100 µM (inactive) |  | > 100 µM (inactive) | > 100 µM (inactive) | > 100 µM (inactive) | > 100 µM (inactive) |  | > 100 µM (inactive) | > 100 µM (inactive) | > 100 µM (inactive) | > 100 µM (inactive) | > 100 µM (inactive) | 10.9 µM (inactive) | > 100 µM (inactive)
CC(C(N)C(=O)NC(C(=O)O)C1OC(n2ccc(=O)[nH]c2=O)C(O)C1O)C(O)c1ccc(O)cn1 (stereo unspecified) | > 100 µM (inactive) | > 100 µM (inactive) | > 100 µM (inactive) | > 100 µM (inactive) | > 100 µM (inactive) | > 100 µM (inactive) | > 100 µM (inactive) | > 100 µM (inactive) | > 100 µM (inactive) | > 100 µM (inactive) | > 100 µM (inactive) | > 100 µM (inactive) |  | > 100 µM (inactive) | > 100 µM (inactive) | > 100 µM (inactive) | > 100 µM (inactive) |  | > 100 µM (inactive) | > 100 µM (inactive)
COc1ccc(/C=C2\CN(C)CC3C2=NC(=S)NC3c2ccc(OC)cc2)cc1 (stereo unspecified) | 4.95 µM (inactive) | 27.2 µM (inactive) | 5.73 µM (inactive) | 2.99 µM (inactive) | 1.63 µM (inactive) | 19.3 µM (inactive) | 6.05 µM (inactive) | 13.9 µM (inactive) | 2.19 µM (inactive) | 7.8 µM (inactive) | 3.43 µM (inactive) | 3.51 µM (inactive) | 4.92 µM (inactive) | 2.77 µM (inactive) | 8.55 µM (inactive) |  | 6.21 µM (inactive) | 2.99 µM (inactive) | 2.9 µM (inactive) | 7.11 µM (inactive)
CCOC(=O)C#Cc1ccc([N+](=O)[O-])cc1 | 1.77 µM (inactive) | 14.3 µM (inactive) | 3.21 µM (inactive) | 1.98 µM (inactive) | 1.49 µM (inactive) | 1 µM (active) | 2.28 µM (inactive) | 3.24 µM (inactive) | 1.73 µM (inactive) | 2.37 µM (inactive) | 1.66 µM (inactive) | 1.53 µM (inactive) | 11.2 µM (inactive) | 2.15 µM (inactive) | 1.64 µM (inactive) | 2.24 µM (inactive) | 2.72 µM (inactive) |  | 1.73 µM (inactive) | 2.06 µM (inactive)
CC[C@]12C=CCN3CC[C@@]4(c5cc(N=O)c(OC)cc5N(C)[C@H]4[C@@](O)(C(=O)NC(Cc4c[nH]c5ccccc45)C(=O)OC)[C@@H]1O)[C@@H]32 (stereo partly specified) | 23.1 µM (inactive) | 17.9 µM (inactive) | 18.9 µM (inactive) |  | 2.64 µM (inactive) | 19.5 µM (inactive) | 6.93 µM (inactive) | 15.3 µM (inactive) | 2.87 µM (inactive) | 17.5 µM (inactive) | 12.9 µM (inactive) | 14.1 µM (inactive) | 15.6 µM (inactive) | 19 µM (inactive) | 7.33 µM (inactive) | 15 µM (inactive) | 11.5 µM (inactive) | 18.6 µM (inactive) | 1.46 µM (inactive) | 16.6 µM (inactive)
CCOC(=O)CN1CCNCCN(CC(=O)OCC)CCNCC1 | 52.6 µM (inactive) | > 100 µM (inactive) | > 100 µM (inactive) | > 100 µM (inactive) | > 100 µM (inactive) | > 100 µM (inactive) | > 10 µM (inactive) | > 100 µM (inactive) | > 100 µM (inactive) | > 100 µM (inactive) | > 100 µM (inactive) | 55.3 µM (inactive) | > 100 µM (inactive) |  | > 100 µM (inactive) | > 100 µM (inactive) | > 100 µM (inactive) |  | > 100 µM (inactive) | > 100 µM (inactive)
CCC1C(=O)C(O)[C@H]2[C@@H]3C(O)CC4=CC(=O)CC[C@]4(C)[C@H]3CC[C@]12C (stereo partly specified) | > 50 µM (inactive) | > 50 µM (inactive) | > 50 µM (inactive) | > 50 µM (inactive) | > 50 µM (inactive) | > 50 µM (inactive) | > 50 µM (inactive) | > 50 µM (inactive) | > 50 µM (inactive) | > 50 µM (inactive) | > 50 µM (inactive) | > 50 µM (inactive) |  | > 50 µM (inactive) | > 50 µM (inactive) | > 50 µM (inactive) | > 50 µM (inactive) | > 50 µM (inactive) | > 50 µM (inactive) | > 50 µM (inactive)
CC[C@@]1(C[C@H]2C[C@@]3(C(=O)OC)c4[nH]c5ccccc5c4CCN3C2=S)COC2(CCCCC2)O1 | 7.78 µM (inactive) | 11.2 µM (inactive) | 45.8 µM (inactive) |  | 59.2 µM (inactive) | > 100 µM (inactive) | 3.13 µM (inactive) | > 100 µM (inactive) | 4.06 µM (inactive) | > 100 µM (inactive) | 6.92 µM (inactive) | 16.7 µM (inactive) | > 100 µM (inactive) | 23.7 µM (inactive) | 3.75 µM (inactive) | 17.8 µM (inactive) | 4.97 µM (inactive) | > 100 µM (inactive) | 6.15 µM (inactive) | > 100 µM (inactive)
Cc1ccc(C)c(NC(=O)C(=O)C2C(=O)C3=C(CC2(C)C)Nc2ccccc2S3)c1 (stereo unspecified) | 53.8 µM (inactive) | > 100 µM (inactive) | > 100 µM (inactive) |  | > 100 µM (inactive) | > 100 µM (inactive) | > 100 µM (inactive) | > 100 µM (inactive) | > 100 µM (inactive) | 33.8 µM (inactive) | > 100 µM (inactive) | > 100 µM (inactive) | > 100 µM (inactive) | > 100 µM (inactive) | 87.9 µM (inactive) | 29.4 µM (inactive) | > 100 µM (inactive) |  | 23.9 µM (inactive) | 56.9 µM (inactive)
O=C1/C(=C/c2ccccc2[N+](=O)[O-])N=C(c2ccccc2)N1c1nc2ccccc2s1 | 31.6 µM (inactive) | 49.2 µM (inactive) | 23.2 µM (inactive) | 9.82 µM (inactive) | 18.6 µM (inactive) | 73.6 µM (inactive) | 34.4 µM (inactive) | 33.2 µM (inactive) | 26.1 µM (inactive) | 17.4 µM (inactive) | 17.9 µM (inactive) | 35.4 µM (inactive) | 19.4 µM (inactive) | 42.7 µM (inactive) | 29.4 µM (inactive) | 27.3 µM (inactive) | 31 µM (inactive) |  | 5.92 µM (inactive) | 30.1 µM (inactive)
NCCCNCCCCNCCCN [SPERMINE TETRAHYDROCHLORIDE] | 2.23 µM (inactive) | 6.62 µM (inactive) | 4.12 µM (inactive) | 0.284 µM (active) | 0.374 µM (active) | > 100 µM (inactive) | 3.66 µM (inactive) | > 100 µM (inactive) | 4.26 µM (inactive) | 34.3 µM (inactive) | 2.73 µM (inactive) | 15.6 µM (inactive) |  | 9.66 µM (inactive) | > 42 µM (inactive) | > 100 µM (inactive) | > 100 µM (inactive) | 93.1 µM (inactive) | 4.53 µM (inactive) | 8.83 µM (inactive)
